# From PubChem BioAssay AID720578 (The Scripps Research Institute Molecular Screening Center, 2013)
# pIC50: −log10 of the molar value. “And” between values parts separate entries of the source, which are not always exact repeats. Equal entries are not always repeated. The source made the active and inactive calls. No rule for the calls is given here.
# Molecular target: Crimean-Congo hemorrhagic fever virus L protein viral ovarian tumor (vOTU) protease domain
# Test: CCHFV vOTU protease inhibitor potency, dose response, biochemical, fluorescence, Pep-AMC substrate (AID 720578)
# Conditions: recombinant CCHFV vOTU, Pep-AMC fluorescence cleavage
SMILES,IC50,pIC50
O=C1NC(c2ccc(-c3ccccc3[N+](=O)[O-])o2)C(C(=O)c2ccc(Cl)cc2)C(O)(C(F)(F)F)N1 (stereo unspecified),inactive,
O=C1C(N2CCOCC2)=C(n2nnc3ccccc32)C(=O)c2ccccc21,,5.57
Cn1c2ccccc2c2cc(/C=N/NC(=O)c3cc(O)ccc3O)ccc21,,5.04
CCCCCCCCCCOC(=O)Cn1c(COc2ccc(Cl)cc2)[n+](C)c2ccccc21,inactive,
NC1=C(Cl)C(=O)c2ccc(S(N)(=O)=O)cc2C1=O,,6.90
Cc1ccc(NC2=C/C(=N/S(=O)(=O)c3cccs3)c3ccccc3C2=O)cc1,,6.39
O=C1Cc2ccccc2C(=O)N1CCc1ccccc1,,5.95
COc1ccc2noc3c2c1C(=O)c1ccccc1-3,,5.51
CC(NC1=CC(=O)c2cccnc2C1=O)C(O)c1ccccc1 (stereo unspecified),,5.71
COc1ccc(CNC(=O)c2c(C)oc3c2C(=O)c2ccccc2C3=O)cc1,,5.09
COc1cc2c(cc1O)[C@@H]1Cc3ccc(OC)c(O)c3CN1CC2,,5.13
NC(=S)N=Nc1c(O)cc(O)c2[nH]c(=O)ccc12,,5.01
Cc1ccccc1NC1=C/C(=N\S(=O)(=O)c2cccs2)c2ccccc2C1=O,,6.60
CCOCCCNC1=C(Cl)C(=O)c2ccccc2C1=O,inactive,
O=C(NC(=S)Nc1ccccc1N1CCCC1)c1ccc(F)cc1,inactive,
C=CCN1C(=O)/C(=C/c2ccc(OC(C)=O)c(OCC)c2[N+](=O)[O-])SC1=S,,5.12
Cc1oc2c(c1C(=O)O)C(=O)c1ccccc1C2=O,,5.04
COC(=O)c1nc(-c2ccc3c(n2)C(=O)C(N)=C(OC)C3=O)c(N)c(-c2ccc(OC)c(OC)c2O)c1C,,6.03
N#CC1=C(S)N(c2ccccc2)C(c2ccc(-c3ccc(Cl)c(Cl)c3)o2)NC1=O (stereo unspecified),inactive,
O=C(COC(=O)c1ccc([N+](=O)[O-])s1)Nc1ccccc1,inactive,
COc1cccc2c1C(=O)c1c(O)c3c(c(O)c1C2=O)C[C@@](O)(C(=O)CO)C[C@@H]3O[C@H]1C[C@H](N)[C@H](O)[C@H](C)O1,inactive,
NC1=CC(=O)C(=O)c2cccnc21,,5.73
O=C(NCCCO)c1ccc2nc(-c3ccco3)c(-c3ccco3)nc2c1,,5.02

SMILES,IC50,pIC50
CCOC(=O)/C=C(\C)Sc1cc(O)c2ccccc2c1O,,5.80
O=C(c1ccco1)[C@@H]1[C@@H]2C(=O)N(c3ccc(Br)cc3)C(=O)[C@@H]2C2c3ccccc3C=CN21 (stereo partly specified),,5.28
CN1/C(=C\C=C2C(=O)NC(=O)NC2=O)C(C)(C)c2ccccc21,inactive,
NS(=O)(=O)c1ccc(NC(=O)COC(=O)c2ccc([N+](=O)[O-])s2)cc1,,5.08
Cn1c(=O)c2c(-c3ccccc3)n(-c3ccc(N)cc3)cc2n(C)c1=O,,5.34
O=C1C=C(Nc2ccccc2)c2ccccc2C1=O,,5.16
O=C1Cc2ccccc2C(=O)N1Cc1ccccc1,,5.89
CCc1ccc(S(=O)(=O)/N=C2\C=C(Nc3cccc(C(=O)O)c3)C(=O)c3ccccc32)cc1,,6.08
CC1OC(CC(=O)O)CC2=C1C(=O)c1c(O)cccc1C2=O (stereo unspecified),,5.42
COC(CNC(=O)c1ccc2c3c(onc13)-c1ccccc1C2=O)OC,,5.46
CN1CCC/C1=C/C=C1\SC(=S)NC1=O,inactive,
O=C(O)CSc1cc(NS(=O)(=O)c2ccc(Br)cc2)c2ccccc2c1O,,5.35
CN(C)c1ccc2nc3ccc(=O)cc-3sc2c1,inactive,
Cc1ccc(S(=O)(=O)/N=C2\C=C(Nc3cccc(C(=O)O)c3)C(=O)c3ccccc32)cc1,,6.11
CC1OC2CC(=O)OC2C2=C1C(=O)c1c(O)cccc1C2=O (stereo unspecified),,5.46
COc1ccc(/C=N/NC(=O)c2nn(-c3ccccc3)c(=O)c3c(N)scc23)cc1,,5.07
O=[N+]([O-])c1c(Nc2ccccn2)cc(Cl)c2nonc12,inactive,
O=C1Nc2ccc([N+](=O)[O-])cc2C1=Nc1cccc(CO)c1,,5.06
CN(C)c1cccc2c1c(NS(=O)(=O)c1cn(C)cn1)nn2C,inactive,
CC(C)C[C@H](NC(=O)c1[nH]cnc1C(=O)N[C@@H](C)C(=O)OC(C)(C)C)C(=O)OC(C)(C)C,> 115 µM (inactive),
CC(=O)NC1=C(N(C)C2CCS(=O)(=O)C2)C(=O)c2ccccc2C1=O (stereo unspecified),,5.05
COC1=CC(=O)c2c(ccc3ncnc(N)c23)C1=O,,6.40
Cc1cc(C)c(S(=O)(=O)/N=C2\C=C(Nc3ccc(C(=O)O)cc3)C(=O)c3ccccc32)c(C)c1,,5.76

SMILES,IC50,pIC50
CCOc1ccc(NC(=S)Nc2ccc3nsnc3c2)cc1,,5.12
Cc1ccc(Cl)cc1NC1=C/C(=N\S(=O)(=O)c2cccs2)c2ccccc2C1=O,,6.10
O=C1C(=O)c2cccnc2-c2ncccc21,,5.27
O=C1C(Nc2cccc(O)c2)=C(N2CCCCC2)C(=O)c2ccccc21,,5.44
O=C1NNC(c2ccccc2)=N/C1=C\c1ccccc1Cl,inactive,
CC1CCCC(NC(=O)COC(=O)c2ccc([N+](=O)[O-])s2)C1C (stereo unspecified),,5.04
Cc1coc2c(O)cc3c(c12)OC1(N2CCCCC2)C(=O)NCCCC31 (stereo unspecified),inactive,
O=C1C=C(NCc2ccccc2)c2ccccc2C1=O,,5.21
COc1cc2c(cc1OC)-c1c(OC)c(OC)cc3c1C(C2)N(C)CC3 (stereo unspecified),> 115 µM (inactive),
O=C1C(Cl)=C(NCCCO)C(=O)c2ccccc21,inactive,
COc1ccccc1NC(=O)COC(=O)c1ccc([N+](=O)[O-])s1,,5.00
Cc1cccc(NC(=O)c2sc3nc4c(c(-c5cccs5)c3c2N)CN(C)CC4)c1,inactive,
COc1ccc(NC(=S)Nc2ccc3nsnc3c2)cc1,,5.17
COc1cc(C(=O)c2nccc3cc(OC)c(OC)cc23)c([N+](=O)[O-])cc1OC,,5.98
CN(C)c1ccc(C=c2c3cc(O)ccc3n3c2cc(-c2ccccc2)[n+]3C)cc1,inactive,
CCOC(=O)c1cc2c(ccn2C)n1Cc1ccccc1C,> 115 µM (inactive),
Oc1c(C=Nc2cccc3nsnc23)ccc2ccccc12,inactive,
CN1CCN(C2=C(Cl)C(=O)c3ccccc3C2=O)CC1,,6.56
CCOC(=O)c1c2c(n(Cc3ccccc3)c1C)C(=O)C(=O)c1ccccc1-2,,5.66
Nc1ccc(N2CCCCC2)c2nonc12,inactive,
C[n+]1c2cc(N)ccc2cc2ccc(N)cc21,,6.02 and 5.50
O=S(=O)(N=C1C=CC(=NS(=O)(=O)c2ccccc2)c2ccccc21)c1ccccc1,inactive,
O=C(c1ccccc1)c1coc2c1C(=O)c1ccccc1C2=O,,5.18

SMILES,IC50,pIC50
COc1cc(C=c2c3ccccc3n3c2cc(-c2ccccc2)[n+]3C)cc(OC)c1OC,,5.17
CC[C@H](CO)Oc1cc(NCc2cccc(N)c2)c2ncn(C(C)C)c2c1,,5.19
NC1=C(Br)C(=O)c2ccccc2C1=O,,5.35
c1coc(-c2nnc(-c3ccco3)nn2)c1,,5.03
Nc1cc2c(cc1Br)[nH]c(=O)c1ccccc12,,5.49
O=C(/C=C/c1ccc(O)cc1)c1ccc(NC2=C(N3CCCCC3)C(=O)c3ccccc3C2=O)cc1,,5.48
CCCCCCCCCCCCN1[C@@H](CC(=O)O)c2cc(F)ccc2S1(=O)=O,inactive,
O=C(O)c1cccc(NC2=C(N3CCOCC3)C(=O)c3ccccc3C2=O)c1,inactive,
Cc1ccccc1NC1=C/C(=N\S(=O)(=O)c2ccc(C(=O)O)cc2)c2ccccc2C1=O,,6.59
COc1ccc(C(C[N+](=O)[O-])c2c(C)[nH]n(-c3ccccc3)c2=O)cc1 (stereo unspecified),inactive,
O=C1C(=NO)CCc2ccccc21,,5.47
O=C(NC(=S)Nc1ccccc1N1CCCC1)c1cccs1,inactive,
CCC(COC)Oc1cc(NCc2ccccc2)c2ncn(C(C)C)c2c1 (stereo unspecified),,5.27
COc1cc(NC(C)CCCN)c2ncccc2c1 (stereo unspecified),inactive,
CC(C)=CCC1=C(OCC(=O)O)C(=O)c2ccccc2C1=O,,5.17
Cc1c(Cl)cnc(NC(=O)COC(=O)c2ccc([N+](=O)[O-])s2)c1Cl,,5.15
CCCCCCCCN1C(=O)[C@@H](CC(=O)NCCCOCCCC)C[C@@]2(C(=O)OC)C1=C[C@H](C(C)C)O[C@@H]2C1CC1,inactive,
Nc1scc2c(C(=O)N/N=C/c3ccc(Cl)cc3)nn(-c3ccccc3)c(=O)c12,inactive,
O=C(O)c1ccc(S(=O)(=O)/N=C2\C=C(Nc3ccccc3F)C(=O)c3ccccc32)cc1,,6.40
CCn1nc(/C=C/c2ccccc2)nc2c(=O)n(C)c(=O)nc1-2,,6.56
Oc1ccccc1CNc1cccc2cccnc12,,5.00
Cc1cc(=O)c2c(o1)C(=O)c1occc1C2=O,,5.22
CCOC(=O)C1=C(COC(=O)c2ccc([N+](=O)[O-])s2)NC(=O)NC1C (stereo unspecified),,5.11

SMILES,IC50,pIC50
O=C(O)c1cccc(NC2=C(n3nnc4ccccc43)C(=O)c3ccccc3C2=O)c1,,5.32
C[n+]1c(-c2ccccc2)c2cc(N)ccc2c2ccc(N)cc21,,5.43
Cc1ccc(NC2=C(N3CCOCC3)C(=O)c3ccccc3C2=O)cc1,,5.37
Cc1cnc(C=NNC(N)=S)c2cccc(N)c12,,5.53
CCCCCCCCCCCCCCCCn1cc[n+](C)c1,inactive,
O=C(NC1=CC(=O)c2ccccc2C1=O)c1ccccc1,,5.41
COc1cc(NCCCC(C)N)c2ncccc2c1 (stereo unspecified),,5.60
CCCCCCCCCCCCCCCC[n+]1ccccc1,inactive,
Cc1ccc(CNc2ccc(O)cc2)cc1,inactive,
C[n+]1cccc2cccc([O-])c21,,5.19
O=C1Cc2ccccc2C(=O)N1,,6.40
CNc1ccc2nc3ccccc3[n+](C)c2c1,inactive,
CC(=O)N(/N=C1\Sc2ccccc2C1=O)c1ccccc1C,inactive,
COc1cc(Br)c(C(=O)c2nccc3cc(OC)c(OC)cc23)cc1OC,,6.57
Cc1oc2c(c1C(=O)N1CCOCC1)C(=O)c1ccccc1C2=O,inactive,
COc1ccc(Cc2nccc3cc(OC)c(OC)cc23)cc1OC,inactive,
Cc1ccc(NC2=C(N3CCCCC3)C(=O)c3ccccc3C2=O)cc1,,5.35
CCCCn1c(NS(=O)(=O)c2ccccc2)c(S(=O)(=O)c2ccc(C)cc2)c2nc3ccccc3nc21,> 115 µM (inactive),
CCOc1ccc2noc3c2c1C(=O)c1ccccc1-3,inactive,
